ChEMBL document CHEMBL1201862, “PubChem BioAssay data set” (2004)
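These data come from cells grown in 96-well plates and exposed to compound for 48 hours at five concentrations. The concentration for 50% growth inhibition is given as GI50.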 Active and inactive are the calls of the source. Cut-off read from the data, not from the text of the source: active = GI50 up to about 1.1 µM and inactive = higher.

What was measured:
Experiment in all cases: NCI-60 cell line screen, 48 h
NCI-H460 = tested on: NCI-H460
SK-MEL-28 = tested on: SK-MEL-28
HOP-62 = tested on: HOP-62
M14 = tested on: M14
MOLT-4 = tested on: MOLT-4
SK-MEL-2 = tested on: SK-MEL-2
NCI/ADR-RES = tested on: NCI/ADR-RES
LOX IMVI = tested on: LOX IMVI
MDA-N = tested on: MDA-N
NCI-H23 = tested on: NCI-H23
HCC 2998 = tested on: HCC 2998
COLO 205 = tested on: COLO 205
HCT-116 = tested on: HCT-116
OVCAR-4 = tested on: OVCAR-4
OVCAR-8 = tested on: OVCAR-8
MCF7 = tested on: MCF7
U-251 = tested on: U-251
SNB-75 = tested on: SNB-75

Measured: GI50

CC1=Nn2c(nc3sc4c(c3c2=O)CCCC4)SC1
inactive: NCI-H460 48.2 µM | SK-MEL-28 > 100 µM | HOP-62 > 100 µM | M14 > 100 µM | MOLT-4 44.2 µM | SK-MEL-2 > 100 µM | NCI/ADR-RES 98.6 µM | LOX IMVI 21.4 µM | MDA-N 28.4 µM | NCI-H23 > 100 µM | HCC 2998 99.5 µM | COLO 205 > 87.9 µM | HCT-116 82 µM | OVCAR-4 71.3 µM | OVCAR-8 > 100 µM | MCF7 > 77.6 µM | U-251 45.5 µM | SNB-75 64.9 µM

Cc1ccc(S(=O)(=O)Oc2cc(S(=O)(=O)O)cc3cc(S(=O)(=O)O)cc(N)c23)cc1
inactive: NCI-H460 > 100 µM | SK-MEL-28 > 100 µM | HOP-62 > 100 µM | M14 > 100 µM | SK-MEL-2 > 100 µM | NCI/ADR-RES > 100 µM | LOX IMVI > 100 µM | MDA-N > 100 µM | NCI-H23 > 100 µM | HCC 2998 > 100 µM | COLO 205 > 100 µM | HCT-116 > 100 µM | OVCAR-4 > 100 µM | OVCAR-8 > 100 µM | MCF7 > 100 µM | U-251 > 100 µM | SNB-75 > 100 µM

CCOC1SC(SC)=NN1C(=O)C(OC(C)=O)C(OC(C)=O)C(OC(C)=O)C(OC(C)=O)C(=O)N1N=C(SC)SC1OCC (stereo not given)
inactive: NCI-H460 > 100 µM | SK-MEL-28 > 100 µM | HOP-62 > 100 µM | M14 > 100 µM | MOLT-4 > 100 µM | SK-MEL-2 > 100 µM | NCI/ADR-RES > 100 µM | LOX IMVI > 100 µM | MDA-N > 100 µM | NCI-H23 > 100 µM | HCC 2998 > 100 µM | COLO 205 > 100 µM | HCT-116 88.5 µM | OVCAR-4 78.5 µM | OVCAR-8 > 100 µM | MCF7 > 100 µM | U-251 86.3 µM | SNB-75 48.3 µM

C=CCOCn1cnc2c(N)ncnc21
inactive: NCI-H460 > 100 µM | SK-MEL-28 > 100 µM | HOP-62 > 100 µM | M14 > 100 µM | MOLT-4 > 100 µM | SK-MEL-2 > 100 µM | NCI/ADR-RES > 100 µM | LOX IMVI > 100 µM | MDA-N > 100 µM | NCI-H23 > 100 µM | HCC 2998 > 100 µM | COLO 205 > 100 µM | HCT-116 > 100 µM | OVCAR-4 > 100 µM | OVCAR-8 > 100 µM | MCF7 > 100 µM | U-251 > 100 µM | SNB-75 > 100 µM

COC(=O)C1SC[C@H]2C(=O)N(c3ccccc3)C(=O)N12 (stereo not given in full)
inactive: NCI-H460 > 100 µM | SK-MEL-28 > 100 µM | HOP-62 > 100 µM | M14 > 100 µM | MOLT-4 > 100 µM | SK-MEL-2 > 100 µM | NCI/ADR-RES > 100 µM | LOX IMVI > 100 µM | MDA-N > 100 µM | NCI-H23 > 100 µM | HCC 2998 > 100 µM | COLO 205 > 100 µM | HCT-116 > 100 µM | OVCAR-4 > 100 µM | OVCAR-8 > 100 µM | MCF7 > 100 µM | U-251 > 100 µM | SNB-75 > 100 µM

O=C(ON=C1c2ccccc2C(Br)C(Br)c2ccccc21)c1ccccc1 (stereo not given)
inactive: NCI-H460 13.4 µM | SK-MEL-28 18.2 µM | HOP-62 12.7 µM | M14 17.3 µM | MOLT-4 2.04 µM | SK-MEL-2 30.2 µM | NCI/ADR-RES 22.8 µM | LOX IMVI 4.28 µM | MDA-N 17.8 µM | NCI-H23 19.4 µM | HCC 2998 21.8 µM | COLO 205 15.8 µM | HCT-116 14.6 µM | OVCAR-4 13.2 µM | OVCAR-8 9.18 µM | MCF7 14.9 µM | U-251 17.7 µM | SNB-75 21.6 µM

Cc1ccc(-c2c(C#N)c(-c3ccc(N(C)C)cc3)c(C#N)c(=O)n2NS(=O)(=O)c2ccccc2)cc1
inactive: NCI-H460 18.1 µM | SK-MEL-28 45.9 µM | HOP-62 46.2 µM | M14 25 µM | MOLT-4 16.4 µM | SK-MEL-2 37.5 µM | NCI/ADR-RES 39.4 µM | LOX IMVI 28 µM | MDA-N 45.9 µM | HCC 2998 18.3 µM | COLO 205 40.8 µM | HCT-116 30.7 µM | OVCAR-4 19.9 µM | OVCAR-8 44.5 µM | MCF7 26.1 µM | U-251 47.9 µM | SNB-75 37 µM

O=C(c1ccccc1)N(C(=O)c1ccccc1)c1nc(SCc2ccccc2)ns1
inactive: NCI-H460 21.1 µM | SK-MEL-28 30.8 µM | HOP-62 32.9 µM | M14 34.4 µM | MOLT-4 25.4 µM | SK-MEL-2 21.9 µM | NCI/ADR-RES 28.3 µM | LOX IMVI 28.6 µM | MDA-N 26.5 µM | NCI-H23 24 µM | HCC 2998 22.1 µM | COLO 205 18.7 µM | HCT-116 23.8 µM | OVCAR-4 39.9 µM | OVCAR-8 36.6 µM | MCF7 30.5 µM | U-251 19.2 µM | SNB-75 22.6 µM

CC(O)(/C=C/c1ccccc1)P(=O)(O)c1ccccc1 (stereo not given)
inactive: NCI-H460 > 100 µM | SK-MEL-28 > 100 µM | HOP-62 > 100 µM | M14 > 100 µM | SK-MEL-2 > 100 µM | NCI/ADR-RES > 100 µM | LOX IMVI > 100 µM | MDA-N > 100 µM | NCI-H23 > 100 µM | HCC 2998 47.2 µM | COLO 205 > 100 µM | HCT-116 > 100 µM | OVCAR-4 > 100 µM | OVCAR-8 > 100 µM | MCF7 > 100 µM | U-251 > 100 µM | SNB-75 37.9 µM

Cc1ccc(SCC(CF)OC(C)n2cnc3c(Cl)nc(N)nc32)cc1 (stereo not given)
inactive: NCI-H460 53 µM | SK-MEL-28 > 100 µM | HOP-62 > 100 µM | M14 > 100 µM | MOLT-4 25.8 µM | SK-MEL-2 69.8 µM | NCI/ADR-RES 25.1 µM | LOX IMVI 70.8 µM | MDA-N 89.1 µM | NCI-H23 57.4 µM | HCC 2998 > 100 µM | COLO 205 > 100 µM | HCT-116 55.1 µM | OVCAR-4 16 µM | OVCAR-8 69.7 µM | MCF7 27.2 µM | U-251 > 100 µM | SNB-75 > 100 µM

CC1(C)CCCCCCCCCC(C)(CCCO)C1=O (stereo not given)
inactive: NCI-H460 18.4 µM | SK-MEL-28 18.2 µM | HOP-62 16.6 µM | M14 14.3 µM | MOLT-4 14.1 µM | SK-MEL-2 15 µM | NCI/ADR-RES 16.6 µM | LOX IMVI 17.6 µM | MDA-N 16.4 µM | NCI-H23 15.5 µM | HCC 2998 17.7 µM | COLO 205 16.3 µM | HCT-116 17.3 µM | OVCAR-4 15.5 µM | OVCAR-8 18.4 µM | MCF7 17.1 µM | U-251 16.8 µM | SNB-75 17.9 µM
